Measured values: patent US4118507A, “Benzodioxincarboxamide lipogenesis inhibitors” (Shell Oil Company, priority 1977, dated 1978)

Columns and labels:
[1] = tested on: lipogenesis in swine adipose tissue; experiment: percent inhibition of lipogenesis from radioactive glucose in pig (swine) adipose tissue slices; type: cell-based; conditions: 100 micrograms per milliliter, 37° C., 2 hours
From the text: (§1) The manner in which they cause this effect is not known with certainty; it is believed that they interfere with the synthesis of fatty acids in the tissues. Their effectiveness for this purpose has been ascertained by immersing samples of mammalian liver or adipose tissue in a liquid medium containing radioactive glucose and the test chemical for a period of time, then isolating the lipid from the treated tissue and determining the up-take of the radioactive carbon by means of scintillation counting techniques. These tests were conducted with both liver and adipose tissues, because in some animals the primary site of lipogenesis appears to be liver tissue, while in others it appears to be adipose tissue. The test animals were pigs, sheep, rabbits, cats and dogs.
Described in more detail, the tests were conducted according to the following general procedure:
Tissue slices (200 milligrams for liver; 150 milligrams for adipose tissue) were incubated, at 37° C. for 2 hours with shaking in 3 milliliters of Krebs-Ringer bicarbonate solution containing one-half the normal calcium ion concentration, 60 micromoles of glucose, 0.5 micro-Curie of glucose-U-^14 C, 300 microunits of insulin, and 5% dimethyl sulfoxide (DMSO). The test compounds were added as a solution or suspension in DMSO and were present at a concentration of 100 micrograms per milliliter of the incubation mixture.
The incubation was terminated by addition of 0.25 milliliter of 1 N sulfuric acid. The resulting mixture was extracted with a total of 25 milliliters of chloroform:methanol (2:1, v/v). The extracts were washed according to Folch et al. (J. Biol. Chem., 226, 497-509, (1957)), air dried, and counted in a liquid scintillation counter with 15 milliliters of counting fluid (two parts toluene containing 0.4% w/v New England Nuclear Omnifluor: 1 part Triton X-100). The tests were conducted in triplicate and were accompanied by control tests in which all ingredients,proportions and conditions were the same except that no test compound was included. From the data obtained, the percent inhibition of lipid synthesis by the test compound was calculated in each case.
Compound 1 was tested with respect to all of the indicated animal species. The other three compounds were tested only with respect to the pig.
From these and other tests, it has been established that in pigs there is little lipogenic activity in the liver tissue. From these and other tests, it also has been established that swine adipose tissue utilizes glucose for lipogenesis, and to be the major site of fatty acid synthesis. The data obtained from the tests using adipose tissue and glucose are set out in Table 1, as the percent inhibition of lipogenesis compared to the results obtained in the control tests wherein only the test compound was omitted.

[2] = tested on: glucose incorporation in the liver; experiment: inhibition of glucose incorporation into lipids in sheep liver tissue slices; type: cell-based; conditions: 100 micrograms per milliliter, 37° C., 2 hours
From the text: as §1
(§2) Described in more detail, the tests were conducted according to the following general procedure: […]
(§3) The incubation was terminated by addition of 0.25 milliliter of 1 N sulfuric acid. […] The extracts were washed according to Folch et al. (J. Biol. Chem., 226, 497-509, (1957)), air dried, and counted in a liquid scintillation counter with 15 milliliters of counting fluid (two parts toluene containing 0.4% w/v New England Nuclear Omnifluor: 1 part Triton X-100). […] From the data obtained, the percent inhibition of lipid synthesis by the test compound was calculated in each case. […]

[3] = tested on: lipogenesis from glucose in the liver; experiment: inhibition of lipogenesis from glucose in cat liver tissue slices; type: cell-based, cats; conditions: 100 micrograms per milliliter, 37° C., 2 hours
From the text: as §1, §2, §3

[4] = tested on: glucose incorporation in adipose tissue; experiment: inhibition of glucose incorporation into lipids in sheep adipose tissue slices; type: cell-based; conditions: 100 micrograms per milliliter, 37° C., 2 hours
From the text: as §1, §2, §3

[5] = tested on: glucose incorporation into liver; experiment: inhibition of glucose incorporation into rabbit liver tissue slices; type: cell-based, rabbits; conditions: 100 micrograms per milliliter, 37° C., 2 hours
From the text: as §1, §2, §3

[6] = tested on: glucose utilization in adipose tissue; experiment: inhibition of glucose utilization in cat adipose tissue slices; type: cell-based, cats; conditions: 100 micrograms per milliliter, 37° C., 2 hours
From the text: as §1, §2, §3

[7] = tested on: glucose incorporation into adipose tissue; experiment: inhibition of glucose incorporation into rabbit adipose tissue slices; type: cell-based, rabbits; conditions: 100 micrograms per milliliter, 37° C., 2 hours
From the text: as §1, §2, §3

[8] = tested on: lipogenesis from glucose in adipose tissue; experiment: inhibition of lipogenesis from glucose in dog adipose tissue slices; type: cell-based, dogs; conditions: 100 micrograms per milliliter, 37° C., 2 hours
From the text: as §1, §2, §3

[9] = tested on: swine adipose tissue lipid synthesis; experiment: in vivo inhibition of swine adipose tissue lipid synthesis (oral dosing in feed, lipogenesis in biopsy slices); conditions: pigs, approximately 25 milligrams per kilogram per day in feed for seven days
Experimental: Compound 1 also was tested to determine the in vivo inhibition of swine adipose tissue lipid synthesis, as follows: pigs weighing about 20 kilograms were administered a fixed drug dose of approximately 25 milligrams of drug per kilogram of animal body weight per day for seven consecutive days. The drug was formulated to contain 10% w active ingredient and was prepared as coarse granules using 4% w plasdene as the granulating agent and lactose as the carrier. […] The daily drug or placebo dose was added to 1.2 kilograms of swine ration; about one-third of the total was fed at 0800, 1200, and 1600 hours. Biopsy samples were obtained from the dorsal subcutaneous adipose tissue (ca. 1 gram) in the neck region before drug administration, after 7 days of drug administration, and 6 days after withdrawal of drug. Adipose tissue slices were prepared from the biopsy sample, and in vitro lipogenesis was determined with radioactive glucose as substrate. The incubation was similar to that previously described except there was no DMSO or test compound in the flasks.

## C=CCNC(=O)[C@@H]1Oc2ccccc2O[C@@H]1C (relative stereo) [Compound 4, 2,3-dihydro-3-methyl-N-(2-propenyl)-1,4-benzodioxin-2-carboxamide cis isomer]
[1]
  Percent Inhibition of lipogenesis compared to control: 68%

## C=CCNC(=O)C1COc2ccccc2O1 (centres unmarked) [Compound 1, 2,3-dihydro-N-(2-propenyl)-1,4-benzodioxin-2-carboxamide]
[2]
  inhibition of glucose incorporation in the liver: 27%
[3]
  inhibition of lipogenesis from glucose in the liver: 35%
[4]
  inhibition of glucose incorporation in adipose tissue: 50%
[5]
  inhibition of glucose incorporation into liver: 32%
[6]
  inhibition of glucose utilization in adipose tissue: did not inhibit glucose utilization in adipose tissue
[7]
  inhibition of glucose incorporation into adipose tissue: 30%
[8]
  inhibition of lipogenesis from glucose in adipose tissue: 54%
[1]
  Percent Inhibition of lipogenesis compared to control: 75%
[9]; biopsy 6 days after withdrawal
  effect on lipogenic rate at day 13, compared to control animals: had significantly reduced the lipogenic rate at day 13
[9]; biopsy after 7 days of administration
  effect on lipogenesis at day 7, compared to control animals: had not significantly affected lipogenesis at day 7

## C=CCNC(=O)C1(C)COc2ccccc2O1 (centres unmarked) [Compound 2, 2,3-dihydro-N-(2-propenyl)-2-methyl-1,4-benzodioxin-2-carboxamide]
[1]
  Percent Inhibition of lipogenesis compared to control: 41%

## C=CCNC(=O)C1COc2cc(Cl)ccc2O1 (centres unmarked) [Compound 3A, 6-chloro-2,3-dihydro-N-(2-propenyl)-1,4-benzodioxin-2-carboxamide]
[1]
  Percent Inhibition of lipogenesis compared to control: 38%

## C=CCNC(=O)C1COc2cc(C(C)(C)C)ccc2O1 (centres unmarked) [Compound 5, 6-(1,1-dimethylethyl)-2,3-dihydro-N-(2-propenyl)-1,4-benzodioxin-2-carboxamide]
[1]
  Percent Inhibition of lipogenesis compared to control: 36%

## C=CCNC(=O)C1COc2cc(C)ccc2O1 (centres unmarked) [Compound 6, 2,3-dihydro-6-methyl-N-(2-propenyl)-1,4-benzodioxin-2-carboxamide]
[1]
  Percent Inhibition of lipogenesis compared to control: 80%

## C=CCNC(=O)C1COc2ccc(C)cc2O1 (centres unmarked) [Compound 7]
[1]
  Percent Inhibition of lipogenesis compared to control: 55%

## C=CCNC(=O)C1COc2ccc(F)cc2O1 (centres unmarked) [Compound 8, 7-fluoro-2,3-dihydro-N-(2-propenyl)-1,4-benzodioxin-2-carboxamides]
[1]
  Percent Inhibition of lipogenesis compared to control: 72%
